Values joined by “and” are separate entries in the source; they are usually repeats but may differ in a detail not shown here. Identical values can stand only once.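 Interpolation was linear, between the two tested concentrations surrounding the appropriate level; five concentrations were tested over 48 hours in 96-well plates. GI50 is the concentration that inhibits growth by half. TGI is the concentration that stops growth completely.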
Key:
Test in all cases: DTP human tumour cell line panel, 48 h
SK-OV-3 ovarian = tested on: SK-OV-3 ovarian
OVCAR-5 ovarian = tested on: OVCAR-5 ovarian
ACHN renal = tested on: ACHN renal
M19-MEL melanoma = tested on: M19-MEL melanoma
TK-10 renal = tested on: TK-10 renal
HOP-92 NSCLC = tested on: HOP-92 NSCLC
LXFL 529 NSCLC = tested on: LXFL 529 NSCLC
DLD-1 colon = tested on: DLD-1 colon
HT29 colon = tested on: HT29 colon
SNB-75 CNS = tested on: SNB-75 CNS
MCF7 breast = tested on: MCF7 breast

Row | SMILES | TGI (SK-OV-3 ovarian) | TGI (OVCAR-5 ovarian) | TGI (ACHN renal) | TGI (M19-MEL melanoma) | TGI (TK-10 renal) | TGI (HOP-92 NSCLC) | TGI (LXFL 529 NSCLC) | TGI (DLD-1 colon) | TGI (HT29 colon) | TGI (SNB-75 CNS) | GI50 (SK-OV-3 ovarian) | GI50 (OVCAR-5 ovarian) | GI50 (ACHN renal) | GI50 (TK-10 renal) | GI50 (HOP-92 NSCLC) | GI50 (MCF7 breast) | TGI (MCF7 breast) | GI50 (HT29 colon) | GI50 (SNB-75 CNS)
1 | C/C(=N\NC(N)=S)c1ccc(/C(C)=N/NC(N)=S)cc1 | > 100 µM | > 100 µM | > 100 µM | > 100 µM | > 100 µM | > 100 µM | > 100 µM | > 100 µM | > 100 µM | > 100 µM |  |  |  |  |  |  |  |  | 
2 | O=S(=O)(O)C(F)(F)C(F)(F)C(F)(F)C(F)(F)F | > 100 µM | > 100 µM | > 100 µM | > 100 µM | > 100 µM | > 100 µM | > 100 µM | > 100 µM | > 100 µM | > 100 µM |  |  |  |  |  |  |  |  | 
3 | CCCCCC(=O)N1c2ccccc2NC2=C(C(=O)CC(c3ccc(OC)c(OC)c3)C2)C1c1ccc(C(F)(F)F)cc1 (configuration not stated) | > 100 µM | > 100 µM | > 100 µM |  | > 100 µM | > 100 µM |  |  | > 100 µM | > 100 µM | > 100 µM | > 100 µM | > 100 µM | > 100 µM | 12.2 µM | 24.3 µM | > 100 µM | > 100 µM | 15.3 µM
4 | N#Cc1nc(-c2cccc(Br)c2)cc(-c2ccc(Nc3nc(N4CCCCC4)nc(N4CCCCC4)n3)cc2)c1N | > 100 µM | 4.7 µM | 3.3 µM |  | 3.47 µM | 3.36 µM |  |  | 4.09 µM | 3.73 µM | 19.1 µM | 2.06 µM | 1.72 µM | 1.8 µM | 1.68 µM | 1.03 µM | 54.4 µM | 1.22 µM | 1.36 µM
5 | COc1cc(N2CCC(N(C)C)CC2)ccc1Nc1ncc(Cl)c(Nc2ccccc2P(C)(C)=O)n1 | 2.01 µM and > 4.16 µM | 8.97 µM and > 10 µM | > 9.65 µM |  | 3.02 µM and 2.62 µM | 0.918 µM |  |  | 2.99 µM and 0.785 µM | 2.69 µM and 0.82 µM | 0.517 µM and 0.43 µM | 0.351 µM and 0.198 µM | 0.972 µM | 0.491 µM and 0.196 µM | 0.0882 µM | 0.202 µM and 0.0522 µM | 21.6 µM and > 10 µM | 0.261 µM and 0.0794 µM | 1.07 µM and 0.228 µM
6 | S=C(Nc1ccccc1)c1ccccn1 | > 100 µM | > 100 µM | > 100 µM |  | > 100 µM | > 100 µM |  |  | > 100 µM | > 100 µM | > 100 µM | > 100 µM | 50.6 µM | > 100 µM | 54.3 µM | > 100 µM | > 100 µM | 50.1 µM | 54.5 µM
7 | C[C@]12CC[C@H]3[C@@H](CCC4=CC(=O)CC[C@@H]43)[C@@H]1CC[C@@H]2OC1(O)C(=O)c2ccccc2C1=O | > 100 µM | > 100 µM | 79.4 µM |  | > 100 µM | > 100 µM |  |  | > 100 µM | > 100 µM |  |  |  |  |  |  | > 100 µM |  | 
8 | COc1ccc(NC2=C(Sc3nc(C)cc(C)n3)C(=O)N(Cc3ccccc3)C2=O)cc1Cl | > 160 µM | > 160 µM | > 160 µM |  | > 160 µM | > 160 µM |  |  | > 160 µM | > 160 µM | > 160 µM | > 160 µM | > 160 µM | > 160 µM | 29.4 µM | 56.8 µM | > 160 µM | 54.5 µM | 40.8 µM
9 | CCOC(=O)c1cc2c(cc1Cl)SC(N(c1ccc(F)cc1)S(=O)(=O)c1ccc(OC)cc1)=NS2(=O)=O | > 100 µM | 71 µM | 42.1 µM |  | 54.5 µM | 19.2 µM |  |  | 34.6 µM | 47.4 µM | 24.3 µM | 32.4 µM | 18.5 µM | 18.8 µM | 4.81 µM | 11.8 µM | 25.4 µM | 16.1 µM | 18.3 µM
10 | CC(C)(C)Cn1c(N)nc2ccc(-c3[nH]c(C(C)(C)C)nc3-c3ccc(F)cc3)nc21 | 18.5 µM | 29.3 µM | 16.7 µM |  | 18.9 µM | 26.3 µM |  |  | 19.3 µM | 16.8 µM | 4.36 µM | 13.7 µM | 1.04 µM | 4.56 µM | 3.41 µM | 10.6 µM | 25.5 µM | 4.52 µM | 2.3 µM
11 | C[C@]12CC[C@H]3[C@@H](CC=C4C[C@@H](O)CC[C@@]43C)[C@@H]1C/C(=C\c1cccc(OCCN3CCOCC3)c1)[C@@H]2O | > 100 µM | > 100 µM | > 100 µM |  | > 100 µM | > 100 µM |  |  | > 100 µM | > 100 µM | > 100 µM | > 100 µM | > 100 µM | > 100 µM | > 100 µM | > 100 µM | > 100 µM | 7.36 µM | > 100 µM
12 | FC(F)(F)c1ccc2c(c1)N(CCCN1CCN(C3CC3)CC1)c1ccccc1S2 | 26.6 µM | 27.6 µM | 24.6 µM |  | 27.2 µM | 28.1 µM |  |  | 13.8 µM | 28.1 µM | 12.9 µM | 13.2 µM | 10.6 µM | 13.8 µM | 13.9 µM | 9.53 µM | 22.1 µM | 3.48 µM | 13.5 µM
13 | O=C(Oc1ccccc1)c1cc(O)c(O)c(O)c1 | > 100 µM | > 100 µM | > 100 µM |  | > 100 µM | 81.4 µM |  |  | > 100 µM | > 100 µM | 9.22 µM | 25.2 µM | 9.72 µM | 29.1 µM | 8.75 µM | 24.7 µM | > 100 µM | 30 µM | 7.41 µM
14 | COc1ccc(C2=NNC(c3ccc(-c4ccc(OC)cc4[N+](=O)[O-])o3)C2)cc1 (configuration not stated) | > 100 µM | > 100 µM | > 100 µM |  | 46.3 µM | 81 µM |  |  | > 100 µM | 84.3 µM | 49.7 µM | > 100 µM | 42.2 µM | 14.8 µM | 15.1 µM | 20 µM | > 100 µM | 44.9 µM | 21.2 µM
15 | CCCCCCC(C)CC(CCCCCC)NCCOC(=O)c1ccc([N+](=O)[O-])cc1 (configuration not stated) | 31.8 µM and 30.4 µM | > 100 µM and 50 µM | 30.5 µM and 28.1 µM |  | 24.5 µM and 23.4 µM | 23.9 µM and 23 µM |  |  | 21.4 µM and 19 µM | 30.4 µM and 33.4 µM |  |  |  |  |  |  | 28.3 µM and 21 µM |  | 

Reference: PubChem BioAssay (NCI)
